Assay results published in the kinase profiling compilation of Christmann-Franck et al. (2016).

How the values were obtained:
Assay in all cases: radiometric filter-binding kinase assay, Kinase HotSpot
Settings in all cases: compound 0.5 µM; ATP 10 µM
ABL1 (human) = ABL1 (human) (UniProt P00519)
ACVRL1 (human) = ACVRL1 (human) (UniProt P37023)
BRSK2 (human) = BRSK2 (human) (UniProt Q8IWQ3)
BTK (human) = BTK (human) (UniProt Q06187)
CAMK2G (human) = CAMK2G (human) (UniProt Q13555)
CAMK4 (human) = CAMK4 (human) (UniProt Q16566)
CDK7 CCNH MNAT1 (human) = CDK7 CCNH MNAT1 (human) (UniProt P50613+P51948+P51946)
CDK9 CCNK (human) = CDK9 CCNK (human) (UniProt O75909+P50750)
Chain of CDK9 CCNK (human) (O75909 whole entry, looked up): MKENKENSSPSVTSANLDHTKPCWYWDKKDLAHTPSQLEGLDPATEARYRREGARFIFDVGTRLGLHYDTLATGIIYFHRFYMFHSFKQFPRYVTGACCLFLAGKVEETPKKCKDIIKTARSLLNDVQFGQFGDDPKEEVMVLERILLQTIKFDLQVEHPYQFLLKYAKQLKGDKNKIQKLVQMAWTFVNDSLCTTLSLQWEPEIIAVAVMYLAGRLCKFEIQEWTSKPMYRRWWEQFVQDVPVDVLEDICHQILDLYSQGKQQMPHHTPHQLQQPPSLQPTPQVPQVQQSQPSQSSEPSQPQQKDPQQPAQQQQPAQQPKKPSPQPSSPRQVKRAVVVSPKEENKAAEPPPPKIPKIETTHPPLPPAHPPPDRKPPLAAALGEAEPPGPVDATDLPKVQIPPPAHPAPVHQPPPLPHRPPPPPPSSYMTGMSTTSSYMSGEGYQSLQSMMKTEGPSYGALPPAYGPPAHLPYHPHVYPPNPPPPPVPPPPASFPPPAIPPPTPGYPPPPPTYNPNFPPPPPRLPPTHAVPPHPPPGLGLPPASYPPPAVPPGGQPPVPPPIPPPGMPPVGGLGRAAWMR
Chain of CDK9 CCNK (human) (P50750 whole entry, looked up): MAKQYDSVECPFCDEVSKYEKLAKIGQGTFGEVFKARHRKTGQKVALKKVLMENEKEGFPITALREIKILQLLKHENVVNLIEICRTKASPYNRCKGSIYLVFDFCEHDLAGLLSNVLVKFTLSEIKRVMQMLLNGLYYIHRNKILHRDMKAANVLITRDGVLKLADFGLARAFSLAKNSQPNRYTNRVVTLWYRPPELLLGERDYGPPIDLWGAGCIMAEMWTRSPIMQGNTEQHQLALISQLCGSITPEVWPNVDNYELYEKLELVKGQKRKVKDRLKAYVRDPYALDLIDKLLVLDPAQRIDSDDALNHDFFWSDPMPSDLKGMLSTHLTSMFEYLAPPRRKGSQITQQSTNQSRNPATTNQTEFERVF

CLK1 (human) = CLK1 (human) (UniProt P49759)
CLK3 (human) = CLK3 (human) (UniProt P49761)
CSNK1A1 (human) = CSNK1A1 (human) (UniProt P48729)
Chain of CSNK1A1 (human) (P48729 whole entry, looked up): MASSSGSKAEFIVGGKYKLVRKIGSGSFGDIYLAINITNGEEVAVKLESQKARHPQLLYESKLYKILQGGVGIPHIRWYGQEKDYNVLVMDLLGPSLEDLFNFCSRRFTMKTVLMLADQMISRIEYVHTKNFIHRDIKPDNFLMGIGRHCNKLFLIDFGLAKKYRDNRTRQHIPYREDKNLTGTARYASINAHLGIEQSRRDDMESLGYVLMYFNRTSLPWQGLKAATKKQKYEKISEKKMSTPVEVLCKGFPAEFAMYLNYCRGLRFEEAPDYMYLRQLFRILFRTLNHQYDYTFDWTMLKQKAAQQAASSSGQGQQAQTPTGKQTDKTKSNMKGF

CSNK1E (human) = CSNK1E (human) (UniProt P49674)
Chain of CSNK1E (human) (P49674 whole entry, looked up): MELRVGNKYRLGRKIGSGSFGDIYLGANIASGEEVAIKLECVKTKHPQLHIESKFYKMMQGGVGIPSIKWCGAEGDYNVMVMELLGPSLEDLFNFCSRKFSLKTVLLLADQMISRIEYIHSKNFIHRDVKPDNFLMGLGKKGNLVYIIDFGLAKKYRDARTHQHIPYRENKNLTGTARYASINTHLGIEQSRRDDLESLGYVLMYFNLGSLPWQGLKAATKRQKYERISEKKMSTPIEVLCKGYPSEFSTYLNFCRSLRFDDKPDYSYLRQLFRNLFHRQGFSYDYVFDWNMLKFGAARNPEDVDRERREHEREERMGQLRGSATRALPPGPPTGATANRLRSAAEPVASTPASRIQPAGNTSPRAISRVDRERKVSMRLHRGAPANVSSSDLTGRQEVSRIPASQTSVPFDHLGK

CSNK2A1 (human) = CSNK2A1 (human) (UniProt P68400)
Chain of CSNK2A1 (human) (P68400 whole entry, looked up): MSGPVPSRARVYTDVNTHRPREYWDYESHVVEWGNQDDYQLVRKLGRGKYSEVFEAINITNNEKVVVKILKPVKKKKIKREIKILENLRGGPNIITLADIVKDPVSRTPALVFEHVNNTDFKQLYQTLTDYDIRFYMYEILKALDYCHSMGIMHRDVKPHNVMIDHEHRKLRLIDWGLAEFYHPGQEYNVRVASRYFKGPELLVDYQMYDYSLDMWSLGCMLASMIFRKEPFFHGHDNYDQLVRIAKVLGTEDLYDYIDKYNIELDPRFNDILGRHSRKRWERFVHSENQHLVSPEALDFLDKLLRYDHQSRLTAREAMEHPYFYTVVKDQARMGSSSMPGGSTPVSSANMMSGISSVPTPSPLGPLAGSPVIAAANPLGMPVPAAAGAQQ

DYRK2 (human) = DYRK2 (human) (UniProt Q92630)
DYRK3 (human) = DYRK3 (human) (UniProt O43781)
DYRK4 (human) = DYRK4 (human) (UniProt Q9NR20)
EPHA4 (human) = EPHA4 (human) (UniProt P54764)
ERBB2 (human) = ERBB2 (human) (UniProt P04626)
FGFR3 (human) = FGFR3 (human) (UniProt P22607)
GRK4 (human) = GRK4 (human) (UniProt P32298)
Chain of GRK4 (human) (P32298 whole entry, looked up): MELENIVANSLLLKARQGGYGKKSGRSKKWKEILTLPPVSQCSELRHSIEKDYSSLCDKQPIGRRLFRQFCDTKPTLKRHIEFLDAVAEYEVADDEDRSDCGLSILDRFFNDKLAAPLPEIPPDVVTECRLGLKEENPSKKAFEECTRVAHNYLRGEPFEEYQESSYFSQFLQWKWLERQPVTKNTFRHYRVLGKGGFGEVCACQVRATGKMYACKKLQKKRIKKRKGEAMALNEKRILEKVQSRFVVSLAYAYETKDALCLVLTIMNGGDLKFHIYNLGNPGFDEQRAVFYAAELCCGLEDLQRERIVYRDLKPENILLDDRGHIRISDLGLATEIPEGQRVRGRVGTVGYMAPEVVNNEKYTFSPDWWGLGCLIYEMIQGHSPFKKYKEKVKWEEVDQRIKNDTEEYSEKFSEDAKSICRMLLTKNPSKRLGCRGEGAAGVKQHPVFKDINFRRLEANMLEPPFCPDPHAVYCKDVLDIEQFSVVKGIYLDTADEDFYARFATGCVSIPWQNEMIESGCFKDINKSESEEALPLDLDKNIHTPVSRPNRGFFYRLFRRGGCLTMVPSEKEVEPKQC

GSK3B (human) = GSK3B (human) (UniProt P49841)
HIPK2 (human) = HIPK2 (human) (UniProt Q9H2X6)
MAP3K10 (human) = MAP3K10 (human) (UniProt Q02779)
MAP3K11 (human) = MAP3K11 (human) (UniProt Q16584)
MAP3K3 (human) = MAP3K3 (human) (UniProt Q99759)
MAPK1 (human) = MAPK1 (human) (UniProt P28482)
Chain of MAPK1 (human) (P28482 whole entry, looked up): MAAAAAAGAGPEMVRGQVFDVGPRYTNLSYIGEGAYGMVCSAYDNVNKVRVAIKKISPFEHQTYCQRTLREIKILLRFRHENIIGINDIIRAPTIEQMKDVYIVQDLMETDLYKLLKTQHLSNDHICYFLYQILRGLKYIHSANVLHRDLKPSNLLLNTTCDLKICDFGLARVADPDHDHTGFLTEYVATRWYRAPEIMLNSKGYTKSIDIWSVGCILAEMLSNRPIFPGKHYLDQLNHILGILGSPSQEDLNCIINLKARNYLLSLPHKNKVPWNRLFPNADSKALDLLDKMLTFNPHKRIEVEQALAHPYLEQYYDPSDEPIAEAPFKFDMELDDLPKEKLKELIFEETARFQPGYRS

MINK1 (human) = MINK1 (human) (UniProt Q8N4C8)
NEK3 (human) = NEK3 (human) (UniProt P51956)
Chain of NEK3 (human) (P51956 whole entry, looked up): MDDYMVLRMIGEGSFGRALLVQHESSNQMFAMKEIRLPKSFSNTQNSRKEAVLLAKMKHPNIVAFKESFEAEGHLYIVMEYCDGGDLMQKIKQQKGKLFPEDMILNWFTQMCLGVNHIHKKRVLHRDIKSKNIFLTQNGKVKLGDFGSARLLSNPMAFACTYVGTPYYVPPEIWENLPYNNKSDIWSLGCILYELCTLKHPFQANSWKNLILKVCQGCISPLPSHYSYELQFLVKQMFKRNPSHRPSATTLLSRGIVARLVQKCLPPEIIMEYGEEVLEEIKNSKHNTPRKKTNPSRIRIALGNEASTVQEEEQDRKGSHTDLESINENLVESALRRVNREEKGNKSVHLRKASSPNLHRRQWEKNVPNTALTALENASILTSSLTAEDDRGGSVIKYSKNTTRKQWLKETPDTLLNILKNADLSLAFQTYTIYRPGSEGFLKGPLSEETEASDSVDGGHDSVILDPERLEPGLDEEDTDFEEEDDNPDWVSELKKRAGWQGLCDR

NEK7 (human) = NEK7 (human) (UniProt Q8TDX7)
PNCK (human) = PNCK (human) (UniProt Q6P2M8)
PRKACA (human) = PRKACA (human) (UniProt P17612)
RIPK2 (human) = RIPK2 (human) (UniProt O43353)
ROCK1 (human) = ROCK1 (human) (UniProt Q13464)
RPS6KA6 KD1 KD2 (human) = RPS6KA6 KD1 KD2 (human) (UniProt Q9UK32)
RPS6KB2 (human) = RPS6KB2 (human) (UniProt Q9UBS0)
SGK2 (human) = SGK2 (human) (UniProt Q9HBY8)
SRPK2 (human) = SRPK2 (human) (UniProt P78362)
Chain of SRPK2 (human) (P78362 whole entry, looked up): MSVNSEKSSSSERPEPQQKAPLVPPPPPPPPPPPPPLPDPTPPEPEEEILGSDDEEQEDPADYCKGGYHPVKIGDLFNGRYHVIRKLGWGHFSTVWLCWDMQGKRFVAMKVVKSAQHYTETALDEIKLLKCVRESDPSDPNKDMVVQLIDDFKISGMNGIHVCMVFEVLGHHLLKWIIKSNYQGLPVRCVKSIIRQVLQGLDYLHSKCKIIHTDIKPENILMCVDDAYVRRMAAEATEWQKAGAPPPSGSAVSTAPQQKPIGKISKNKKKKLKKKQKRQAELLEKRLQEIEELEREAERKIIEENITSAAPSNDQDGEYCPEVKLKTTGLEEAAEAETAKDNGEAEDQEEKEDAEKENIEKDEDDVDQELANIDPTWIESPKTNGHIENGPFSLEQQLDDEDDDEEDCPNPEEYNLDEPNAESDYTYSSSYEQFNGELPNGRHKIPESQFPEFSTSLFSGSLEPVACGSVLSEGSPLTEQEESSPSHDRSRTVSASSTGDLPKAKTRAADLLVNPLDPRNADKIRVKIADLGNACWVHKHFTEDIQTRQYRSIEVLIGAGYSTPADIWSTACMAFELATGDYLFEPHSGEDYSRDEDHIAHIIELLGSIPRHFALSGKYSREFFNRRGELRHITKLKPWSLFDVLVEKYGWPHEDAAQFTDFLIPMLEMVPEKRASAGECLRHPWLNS

SRPK3 (human) = SRPK3 (human) (UniProt Q9UPE1)
STK10 (human) = STK10 (human) (UniProt O94804)
TEK (human) = TEK (human) (UniProt Q02763)
TNK2 (human) = TNK2 (human) (UniProt Q07912)
ULK1 (human) = ULK1 (human) (UniProt O75385)

Chain of BTK (human) (Q06187 whole entry, looked up): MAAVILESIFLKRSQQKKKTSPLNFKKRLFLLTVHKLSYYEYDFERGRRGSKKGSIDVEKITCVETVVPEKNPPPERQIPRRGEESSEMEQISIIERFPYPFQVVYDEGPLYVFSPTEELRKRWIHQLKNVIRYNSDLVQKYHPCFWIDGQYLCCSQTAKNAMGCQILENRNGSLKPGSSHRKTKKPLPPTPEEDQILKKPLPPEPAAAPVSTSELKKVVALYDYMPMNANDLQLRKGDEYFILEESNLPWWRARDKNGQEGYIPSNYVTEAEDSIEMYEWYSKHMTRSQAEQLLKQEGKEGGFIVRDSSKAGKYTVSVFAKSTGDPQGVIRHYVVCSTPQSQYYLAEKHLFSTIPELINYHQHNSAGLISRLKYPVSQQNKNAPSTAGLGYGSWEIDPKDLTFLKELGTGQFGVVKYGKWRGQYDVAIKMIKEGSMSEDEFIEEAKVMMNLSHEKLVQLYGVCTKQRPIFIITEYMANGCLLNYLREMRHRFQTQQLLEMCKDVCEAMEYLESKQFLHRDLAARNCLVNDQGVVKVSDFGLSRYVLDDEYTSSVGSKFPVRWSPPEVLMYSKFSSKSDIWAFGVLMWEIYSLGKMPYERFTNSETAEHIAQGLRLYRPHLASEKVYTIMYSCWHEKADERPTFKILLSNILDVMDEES

With `CCN(CC)CCCCN1c2ccccc2Oc2ccc(Cl)cc21` the residual activity (ABL1 (human)) was 107%, the residual activity (ACVRL1 (human)) was 102% and the residual activity (BRSK2 (human)) was 107%. It also gave a residual activity (BTK (human)) of 99.2%, a residual activity (CAMK2G (human)) of 104% and a residual activity (CAMK4 (human)) of 98.9%. It also gave a residual activity (CDK7 CCNH MNAT1 (human)) of 99%, a residual activity (CDK9 CCNK (human)) of 105% and a residual activity (CLK1 (human)) of 110%. For the same molecule, the residual activity (CLK3 (human)) was 104%, the residual activity (CSNK1A1 (human)) was 96.1% and the residual activity (CSNK1E (human)) was 112%. The residual activity (CSNK2A1 (human)) was 96.2%, the residual activity (DYRK2 (human)) was 101% and the residual activity (DYRK3 (human)) was 99%. For the same molecule, the residual activity (DYRK4 (human)) was 100%, the residual activity (EPHA4 (human)) was 91.9% and the residual activity (ERBB2 (human)) was 96.6%. The residual activity (FGFR3 (human)) was 91.8%, the residual activity (GRK4 (human)) was 102% and the residual activity (GSK3B (human)) was 113%. It also gave a residual activity (HIPK2 (human)) of 118%, a residual activity (MAP3K10 (human)) of 102% and a residual activity (MAP3K11 (human)) of 99.9%. The residual activity (MAP3K3 (human)) was 103%, the residual activity (MAPK1 (human)) was 84.7% and the residual activity (MINK1 (human)) was 111%. The residual activity (NEK3 (human)) was 103%, the residual activity (NEK7 (human)) was 89.7% and the residual activity (PNCK (human)) was 107%. The residual activity (PRKACA (human)) was 98.4%, the residual activity (RIPK2 (human)) was 89.7% and the residual activity (ROCK1 (human)) was 92.6%. For the same molecule, the residual activity (RPS6KA6 KD1 KD2 (human)) was 109%, the residual activity (RPS6KB2 (human)) was 107% and the residual activity (SGK2 (human)) was 105%. For the same molecule, the residual activity (SRPK2 (human)) was 109%, the residual activity (SRPK3 (human)) was 104% and the residual activity (STK10 (human)) was 97.1%. The residual activity (TEK (human)) was 103%, the residual activity (TNK2 (human)) was 94.7% and the residual activity (ULK1 (human)) was 99.8%.

In the case of `Cn1nc2c3c(cccc31)C(=O)c1ccccc1-2`, the residual activity (ABL1 (human)) is reported as 99.1%, the residual activity (ACVRL1 (human)) is reported as 102% and the residual activity (BRSK2 (human)) is reported as 96.4%. It also gave a residual activity (BTK (human)) of 89.5%, a residual activity (CAMK2G (human)) of 109% and a residual activity (CAMK4 (human)) of 100%. The residual activity (CDK7 CCNH MNAT1 (human)) was 98.8%, the residual activity (CDK9 CCNK (human)) was 96.5% and the residual activity (CLK1 (human)) was 92.7%. The residual activity (CLK3 (human)) was 98.5%, the residual activity (CSNK1A1 (human)) was 47.8% and the residual activity (CSNK1E (human)) was 34.3%. For the same molecule, the residual activity (CSNK2A1 (human)) was 90.2%, the residual activity (DYRK2 (human)) was 99.4% and the residual activity (DYRK3 (human)) was 129%. The residual activity (DYRK4 (human)) was 91.2%, the residual activity (EPHA4 (human)) was 104% and the residual activity (ERBB2 (human)) was 96.9%. For the same molecule, the residual activity (FGFR3 (human)) was 95.9%, the residual activity (GRK4 (human)) was 105% and the residual activity (GSK3B (human)) was 94%. For the same molecule, the residual activity (HIPK2 (human)) was 105%, the residual activity (MAP3K10 (human)) was 91.4% and the residual activity (MAP3K11 (human)) was 97.2%. It also gave a residual activity (MAP3K3 (human)) of 94.4%, a residual activity (MAPK1 (human)) of 91.7% and a residual activity (MINK1 (human)) of 92.3%. It also gave a residual activity (NEK3 (human)) of 96.7%, a residual activity (NEK7 (human)) of 93.1% and a residual activity (PNCK (human)) of 101%. The residual activity (PRKACA (human)) was 104%, the residual activity (RIPK2 (human)) was 75.7% and the residual activity (ROCK1 (human)) was 98.4%. The residual activity (RPS6KA6 KD1 KD2 (human)) was 90.4%, the residual activity (RPS6KB2 (human)) was 94.7% and the residual activity (SGK2 (human)) was 98.9%. The residual activity (SRPK2 (human)) was 97.2%, the residual activity (SRPK3 (human)) was 96.3% and the residual activity (STK10 (human)) was 94.5%. For the same molecule, the residual activity (TEK (human)) was 98.2%, the residual activity (TNK2 (human)) was 83.3% and the residual activity (ULK1 (human)) was 101%.
